Source: paper PMC4010122 (Journal of medicinal chemistry, 2008)

Experiments:
Format in all cases: biochemical
[1] = target: BRAF^WT (Homo sapiens, UniProt P15056); test: ELISA-based MEK phosphorylation assay
[2] = target: Pim1 (Homo sapiens, UniProt P11309); test: Kinase profiling, Pim1; conditions: inhibitor concentration of 100 μM
[3] = target: PI3Kγ (Homo sapiens, UniProt P48736); test: Kinase profiling, PI3Kγ lipid kinase; conditions: BRAF versus PI3Kγ
[4] = target: T1, MST1 (Homo sapiens, UniProt Q13043); test: Kinase profiling, MST1; conditions: inhibitor concentration of 100 μM
T1 sequence (Q13043 1-487): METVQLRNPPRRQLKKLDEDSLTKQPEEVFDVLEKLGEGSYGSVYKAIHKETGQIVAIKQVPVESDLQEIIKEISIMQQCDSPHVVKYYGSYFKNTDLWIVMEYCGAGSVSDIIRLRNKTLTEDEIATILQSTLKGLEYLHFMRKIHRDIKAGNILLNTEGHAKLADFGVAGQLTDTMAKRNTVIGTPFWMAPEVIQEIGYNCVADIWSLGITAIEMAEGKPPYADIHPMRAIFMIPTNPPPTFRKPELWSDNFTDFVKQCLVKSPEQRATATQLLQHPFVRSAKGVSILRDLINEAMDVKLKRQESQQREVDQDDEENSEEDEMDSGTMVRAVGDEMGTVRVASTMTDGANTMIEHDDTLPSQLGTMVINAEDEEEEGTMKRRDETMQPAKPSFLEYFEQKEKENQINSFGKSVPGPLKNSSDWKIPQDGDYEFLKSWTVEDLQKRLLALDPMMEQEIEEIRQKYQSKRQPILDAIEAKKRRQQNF

[5] = target: PAK1 (Homo sapiens, UniProt Q13153); test: Kinase profiling, PAK1; conditions: inhibitor concentration of 100 μM
Chain of PAK1 (Q13153 whole entry): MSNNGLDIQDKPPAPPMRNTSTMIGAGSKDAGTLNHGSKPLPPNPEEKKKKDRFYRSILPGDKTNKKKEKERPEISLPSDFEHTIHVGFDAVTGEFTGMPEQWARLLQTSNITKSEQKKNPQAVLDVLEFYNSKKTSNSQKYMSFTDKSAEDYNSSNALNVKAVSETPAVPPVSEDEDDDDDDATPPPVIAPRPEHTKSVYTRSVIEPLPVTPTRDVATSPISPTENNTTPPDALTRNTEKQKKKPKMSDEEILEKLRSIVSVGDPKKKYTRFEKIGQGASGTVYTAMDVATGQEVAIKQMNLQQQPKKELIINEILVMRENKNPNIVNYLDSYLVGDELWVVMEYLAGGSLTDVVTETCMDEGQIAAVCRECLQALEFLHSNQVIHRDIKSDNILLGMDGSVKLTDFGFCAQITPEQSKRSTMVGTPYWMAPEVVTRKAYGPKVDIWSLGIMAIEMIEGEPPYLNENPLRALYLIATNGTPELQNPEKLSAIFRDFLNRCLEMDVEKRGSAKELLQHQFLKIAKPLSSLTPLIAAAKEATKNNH

[6] = target: PAK4 (Homo sapiens, UniProt O96013); test: Kinase profiling, PAK4; conditions: inhibitor concentration of 100 μM
Chain of PAK4 (O96013 whole entry, species assumed): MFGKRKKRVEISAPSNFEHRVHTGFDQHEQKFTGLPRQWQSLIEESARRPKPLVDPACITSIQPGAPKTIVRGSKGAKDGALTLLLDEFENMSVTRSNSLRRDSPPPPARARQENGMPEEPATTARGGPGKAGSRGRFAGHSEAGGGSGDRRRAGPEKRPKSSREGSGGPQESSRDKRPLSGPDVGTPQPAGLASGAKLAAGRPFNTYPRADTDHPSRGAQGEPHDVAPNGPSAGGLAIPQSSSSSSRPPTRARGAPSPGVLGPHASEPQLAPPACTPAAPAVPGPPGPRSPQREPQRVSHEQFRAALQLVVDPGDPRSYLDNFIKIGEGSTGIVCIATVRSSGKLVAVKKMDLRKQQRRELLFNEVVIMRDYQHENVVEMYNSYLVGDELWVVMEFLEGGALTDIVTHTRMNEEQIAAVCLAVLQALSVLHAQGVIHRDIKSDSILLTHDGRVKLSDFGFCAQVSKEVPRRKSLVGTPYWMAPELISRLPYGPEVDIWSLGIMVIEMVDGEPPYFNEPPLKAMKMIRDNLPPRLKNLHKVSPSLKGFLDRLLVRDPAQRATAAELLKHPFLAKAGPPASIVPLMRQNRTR

[7] = target: GSK3β (Homo sapiens, UniProt P49841); test: Kinase profiling, GSK3β; conditions: inhibitor concentration of 100 μM
Chain of GSK3β (P49841 whole entry, species assumed): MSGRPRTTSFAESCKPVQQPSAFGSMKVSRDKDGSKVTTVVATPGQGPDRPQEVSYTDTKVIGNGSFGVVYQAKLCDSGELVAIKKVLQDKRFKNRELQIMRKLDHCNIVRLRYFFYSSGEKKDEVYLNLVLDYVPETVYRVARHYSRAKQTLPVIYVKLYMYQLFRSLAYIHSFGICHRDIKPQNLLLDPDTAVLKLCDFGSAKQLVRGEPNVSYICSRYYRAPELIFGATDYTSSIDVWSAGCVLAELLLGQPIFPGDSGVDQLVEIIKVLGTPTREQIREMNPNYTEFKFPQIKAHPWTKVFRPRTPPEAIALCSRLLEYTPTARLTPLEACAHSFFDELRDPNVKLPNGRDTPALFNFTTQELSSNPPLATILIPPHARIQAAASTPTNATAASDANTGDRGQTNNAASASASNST

Chain of BRAF^WT (P15056 433-726): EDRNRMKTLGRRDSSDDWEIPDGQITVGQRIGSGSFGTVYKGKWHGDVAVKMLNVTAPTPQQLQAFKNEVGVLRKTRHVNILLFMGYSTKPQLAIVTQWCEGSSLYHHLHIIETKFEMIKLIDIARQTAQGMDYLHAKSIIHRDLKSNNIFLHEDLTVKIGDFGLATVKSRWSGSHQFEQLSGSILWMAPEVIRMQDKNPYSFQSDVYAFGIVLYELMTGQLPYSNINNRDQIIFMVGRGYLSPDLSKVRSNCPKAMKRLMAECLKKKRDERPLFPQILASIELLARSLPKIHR
Chain of PI3Kγ (P48736 whole entry, species assumed): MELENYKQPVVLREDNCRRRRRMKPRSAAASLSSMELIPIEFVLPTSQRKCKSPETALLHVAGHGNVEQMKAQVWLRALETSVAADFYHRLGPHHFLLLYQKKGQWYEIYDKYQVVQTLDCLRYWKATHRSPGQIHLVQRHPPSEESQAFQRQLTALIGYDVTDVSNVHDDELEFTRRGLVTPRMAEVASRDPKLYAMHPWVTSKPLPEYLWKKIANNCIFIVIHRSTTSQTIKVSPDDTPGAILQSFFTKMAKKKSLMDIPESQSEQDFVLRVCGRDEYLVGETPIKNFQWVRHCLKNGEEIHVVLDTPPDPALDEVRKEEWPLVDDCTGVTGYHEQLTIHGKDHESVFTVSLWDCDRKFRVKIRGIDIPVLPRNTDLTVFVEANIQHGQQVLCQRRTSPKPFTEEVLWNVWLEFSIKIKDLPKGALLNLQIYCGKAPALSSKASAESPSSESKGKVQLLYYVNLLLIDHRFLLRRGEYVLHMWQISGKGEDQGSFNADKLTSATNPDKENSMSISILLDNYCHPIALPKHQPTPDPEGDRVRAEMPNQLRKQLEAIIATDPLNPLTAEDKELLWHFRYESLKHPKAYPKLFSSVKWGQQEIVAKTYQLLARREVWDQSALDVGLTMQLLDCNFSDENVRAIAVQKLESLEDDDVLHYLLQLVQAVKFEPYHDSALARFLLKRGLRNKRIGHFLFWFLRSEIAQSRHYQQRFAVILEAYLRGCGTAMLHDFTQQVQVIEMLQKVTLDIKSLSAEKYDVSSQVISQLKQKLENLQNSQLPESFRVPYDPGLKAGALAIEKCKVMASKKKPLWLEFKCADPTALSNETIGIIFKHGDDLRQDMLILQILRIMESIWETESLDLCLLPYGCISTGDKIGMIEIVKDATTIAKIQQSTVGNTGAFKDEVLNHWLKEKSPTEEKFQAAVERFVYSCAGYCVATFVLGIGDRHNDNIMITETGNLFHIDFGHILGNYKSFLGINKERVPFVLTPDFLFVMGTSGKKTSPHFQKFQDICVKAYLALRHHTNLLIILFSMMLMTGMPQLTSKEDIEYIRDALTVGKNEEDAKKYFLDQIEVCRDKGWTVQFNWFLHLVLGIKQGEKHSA
Chain of Pim1 (P11309 whole entry, species assumed): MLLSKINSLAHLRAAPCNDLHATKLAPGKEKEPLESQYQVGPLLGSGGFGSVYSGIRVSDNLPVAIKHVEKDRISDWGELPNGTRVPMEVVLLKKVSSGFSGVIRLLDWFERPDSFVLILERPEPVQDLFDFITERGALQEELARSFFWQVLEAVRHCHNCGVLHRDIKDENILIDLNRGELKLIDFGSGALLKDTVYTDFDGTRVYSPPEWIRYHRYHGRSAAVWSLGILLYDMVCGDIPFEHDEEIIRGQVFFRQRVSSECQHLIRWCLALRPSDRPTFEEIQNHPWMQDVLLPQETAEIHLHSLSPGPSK

## CC1Nc2nc(NC(=O)c3ccc[n+](C)c3)[nH]c(=O)c2N(C(=O)c2ccc[n+](C)c2)C1C (stereo not shown) [compound 1]
[1]; read-out: BRAF kinase activity remaining (of wild-type activity)
  remaining activity at 100 µM: ~80%

## Cn1c(=O)n(Cc2ccccc2)c(=O)c2c1nc(SCCO)n2Cc1ccccc1 [compound 24]
[2]
  inhibition against Pim1: did not show significant inhibition
[3]
  selectivity for BRAF over PI3K lipid kinases: > 12 fold
[1]; versus GSK3β, Pim1, MST1, PAK1, PAK4
  selectivity for BRAF over other representative protein kinases: more than 50 fold
[4]
  inhibition against MST1: did not show significant inhibition
[5]
  inhibition against PAK1: did not show significant inhibition
[6]
  inhibition against PAK4: did not show significant inhibition
[7]
  inhibition against GSK3β: did not show significant inhibition

## Cn1c(=O)[nH]c(=O)c2c1nc(N/N=C\c1cccc([N+](=O)[O-])c1)n2Cc1ccccc1 [compound 31]
[1]
  reduction in BRAF inhibitor potency relative to compound 19: ≥ 20 fold

## Cn1c(=O)[nH]c(=O)c2c1nc(N/N=C\c1ccc([N+](=O)[O-])cc1)n2Cc1ccccc1 [compound 32]
[1]
  reduction in BRAF inhibitor potency relative to compound 19: ≥ 20 fold
